Results as given in EP0039059A2, “Anti-inflammatory drugs and their application” (F. HOFFMANN-LA ROCHE & CO. Aktiengesellschaft, priority 1980, dated 1981).

Key:
[1] = tested on: Krotonöl-Entzündung in der Maus; assay: Croton oil inflammation in the mouse (ear punch weight); format: in vivo, Mäusen (Charles River CD-1); details: for Hemmung in %: topical, mouse ear, 6 h; for Gewicht der Ohrstücke in mg: croton oil alone 19,7±0,6, vehicle without croton oil 7,2
Experimental: Eine Lösung aus 0,1 Teilen Krotonöl, 1 Teil destilliertem Wasser, 4 Teilen Pyridin und 4,9 Teilen Diäthyläther (Volumenteile), welche die Testverbindung enthält, wird topisch auf Ohren von 21 Tage alten männlichen Mäusen (Charles River CD-1) gegeben (25 ul). Verschiedene Gruppen von Mäusen dienten als Kontrollgruppen (Trägermaterial-Gruppe und Krotonöl-Gruppe). Nach 6 Stunden wird das Gewicht der Ohrstücke bestimmt, das in erster Linie ein Mass für die Oedem-Komponente der Entzündung ist. Verminderung des Gewichtes von Ohrstücken, welche von Mäusen erhalten wurden, welche mit der Testverbindung und dem Reizmittel behandelt worden sind, verglichen mit dem Gewicht von Ohrstücken, die von Mäusen erhalten wurden, die nur mit dem Reizmittel behandelt worden sind, zeigt entzündungshemmende Wirkung an (Endocrinology 77, 625-634, 1965; Clin. Pharm. Exp. Therap. 16, 900-904, 1974).
Die Verbindung E wird bei 3 verschiedenen Dosierungen im Krotonöl-Entzündungs-Test in der Maus auf ihre topisch entzündungshemmende Wirkung hin geprüft. Ebenfalls getestet werden Hydrocortison, ein bekanntes topisch entzündungshemmendes Corticosteroid, und eine Reihe von bekannten Verbindungen, welche systemisch entzündungshemmend wirken und nicht zur Klasse der Steroide gehören. Die Testresultate (Hemmung in Prozenten) sind in der unten stehenden Tabelle angegeben. Wie man diesen Resultaten entnehmen kann, entfaltet die Verbindung E eine vergleichbare Aktivität wie Hydrocortison, währenddem die anderen Verbindungen, welche nicht zur Klasse der Steroide gehören, in wesentlich höheren Dosierungen verabreicht werden müssen, um eine vergleichbare Hemmung zu bewirken, wie die Verbindung E und Hydrocortison.
Die entzündungshemmende Wirkung der Verbindung E alleine oder in Kombination mit 4-(3-Butoxy-4-methoxybenzyl)-2-imidazolidinon wird im Krotonöl-Test an der Maus bestimmt. Die Verbindung E wird bei verschiedenen Konzentrationen verwendet. 4-(3-Butoxy-4-methoxybenzyl)-2-imida- zolidinon wird, sofern vorhanden, in einer Konzentration von 5 Gewichtsprozenten (bezogen auf das Gewicht der applizierten Lösung) eingesetzt. Die Testresultate sind in der unten stehenden Tabelle aufgeführt.

[2] = tested on: Baumwollkügelchen-Granuloma; assay: Cotton pellet granuloma method in the rat; format: in vivo, Ratten (Charles River CD); details: s.c. implant, 72 h; for durchschnittliches Nettogewicht der Kügelchen in mg trocken: ethanol vehicle 32.6; for durchschnittliches Nettogewicht der Kügelchen in mg feucht: ethanol vehicle 392.5
Experimental: Man löst die Testverbindung in einem geeigneten Lösungsmittel und appliziert jeweils 0,1 ml dieser Lösung auf einheitliche, vorher gewogene Baumwollkügelchen, die man aus Baumwolltampons herausgeschnitten hat. Man trocknet die Baumwollkügelchen bei Raumtemperatur. 2 mit der Testverbindung imprägnierte Kügelchen werden auf dem Dorsum von 5 Wochen alten männlichen Ratten (Charles River CD) subcutan inplantiert. 72 Stunden später werden die Kügelchen entfernt. Man bestimmt das Feucht- und Trockengewicht und korrigiert um das Tara der Kügelchen. Vergleicht man nun die Gewichte der Granulomata, die man von mit der Testverbindung imprägnierten Kügelchen erhalten hat, mit den Gewichten der Granulomata, die man von nur mit Trägermaterial imprägnierten Kügelchen erhalten hat, miteinander, so zeigt eine Abnahme des Gewichtes entzündungshemmende Wirkung an (Endocrinology 60, 153-160, 1957).
Die topisch entzündungshemmenden Wirkungen der Verbindung E und Hydrocortison werden durch Verwendung des Baumwollkügelchen-Granuloma-Verfahrens an der Ratte bestimmt. Die in der unten stehenden Tabelle angegebenen Testresultate zeigen, dass die Verbindung E bei Dosierungenen von 90 und 270 µg/0,1 ml grösser ist als die Akti- vität von Hydrocortison (niedrigere Feucht- und Trockengewichte).

[3] = tested on: Oxazolon-Entzündung in vorsensibilisierten Mäusen; assay: Oxazolone inflammation in presensitised mice (ear punch weight); format: in vivo, Mäuse (Charles River CD-1); details: topical, mouse ear, 24 h
Experimental: 21 Tage alte männliche Mäuse (Charles River CD-1) werden mit Oxazolon sensibilisiert, indem man 400 ug Oxazolon in 20 ul Aceton topisch auf das Scrotum appliziert.. Eine Woche später werden 10 ul Aceton oder 200 µg Oxazolon topisch auf die innere Oberfläche des Ohres und die Testverbindung in 10 µl Aceton auf die äussere Oberfläche des Ohres appliziert. Verschiedene Gruppen von Mäusen dienten als Kontrollgruppen (Trägermaterial-Gruppe und Oxazolon-Gruppe). Das Gewicht der Ohrstücke wird 24 Stunden später bestimmt. Verminderung des Gewichtes der Ohrstücke, erhalten aus Mäusen, welche mit der Testverbindung und mit Oxazolon behandelt worden sind, verglichen mit dem Gewicht der Ohrstücke, erhalten aus Mäusen, welche mit Oxazolon alleine behandelt worden sind, zeigt entzündungshemmende Wirkungen (Br. J. Pharmacol. 43, 403-408, 1971).
Die topisch entzündungshemmenden Wirkungen der Verbindung E, Hydrocortison und Indomethacin werden bei verschiedenen Dosierungen im Oxazolon-Entzündungs-Test in vorsensibilisierten Mäusen bestimmt. Die Testresultate (Hemmung in %) sind in der untenstehenden Tabelle angegeben.

[4] = tested on: Cantharidin-Entzündung in der Ratte; assay: Cantharidin inflammation in the rat (ear punch weight); format: in vivo, Ratten (Charles River CD); details: 100 µg/0,1 ml topical, compound given 24 h after cantharidin, autopsy 72 h
Experimental: Eine Lösung aus einem Teil Aethanol, 1,5 Teilen Collodion, 2 Teilen Aceton und 3 Teilen Diäthyläther (Volumenteile), welche 400 ug Cantharidin/0,1 ml und die Testverbindung in der gewünschten Menge enthält, wird topisch auf die äussere Oberfläche von Ohren von 21 Tage alten männlichen Ratten (Charles River CD) gegeben (0,1 ml). Andere Gruppen von Ratten werden mit Trägermaterial alleine, mit Cantharidin alleine und mit Cantharidin plus Testverbindung behandelt. Wo in den Beispielen angegeben, wird die Testverbindung 24 Stunden nach Verabreichung von Cantharidin verabreicht. 72 Stunden nach Verabreichung von Cantharidin wird eine Autopsie durchgeführt. Aus dem Ohr werden an der behandelten Stelle einheitliche Stücke herausgestanzt und gewogen. Aus den Gewichtsveränderungen lassen sich die Auswirkungen auf den Entzündungsprozess ermitteln, und zwar sowohl für die Flüssigkeits- als auch für die Gewebskomponente. Eine Reduktion des Gewichtes von Hautstücken, die man aus Ratten erhalten hat, welche mit dem Reizmittel und der Testverbindung behandelt worden sind, verglichen mit dem Gewicht von Hautstücken, welche man von Ratten erhalten hat, die nur mit dem Reizmittel behandelt worden sind, zeigt eine entzündungshemmende Wirkung an (J. Invest. Dermatol. 68, 161-164, 1977).
Eine Reihe von Verbindungen der allgemeinen Formel I werden im Cantharidin-Entzündungs-Test in der Ratte auf ihre topisch entzündungshemmenden Wirkungen hin ge- testet. Jede Verbindung wird bei 5 verschiedenen Dosierungen getestet. Die in der nachfolgenden Tabelle ange- gebenen Testresultate (in %) geben an, um wieviel die durch Cantharidin bewirkte Zunahme des Gewichtes der Ohrstücke durch die jeweilige Testverbindung reduziert wird: • [formula]
Die topisch entzündungshemmende Wirkung der Verbindung E wird bei einer Dosierung von 100 µg/0,1 ml im Cantharidin- Entzündungs-Test in der Ratte bestimmt, wobei man adrenalektomierte und intakte Ratten verwendet. Wie man den Testresultaten in der untenstehenden Tabelle entnehmen kann, entfaltet die Verbindung E an der adrenalektomierten Ratte etwa die gleich grosse Wirkung wie an der intakten Ratte. Dies zeigt an, dass der primäre Wirkungsmechanismus nicht in der Stimulierung der Nebennierenrinde besteht.

[5] = pellets impregnated with 90 µg/0.1 ml
[6] = pellets impregnated with 270 µg/0.1 ml

In the case of COc1ccc2cc([C@H](C)C(=O)O)ccc2c1 [Naproxen], the Hemmung in % ([1]; dose 1250 µg/25 µl) is reported as 60% and the Hemmung in % ([1]; dose 2500 µg/25 µl) is reported as 87%.

For CN1CCN(C2=Cc3ccccc3Sc3ccc(Cl)cc32)CC1 [Verbindung E, 8-Chlor-10-(4-methylpiperazino)dibenzo-[b,f]thiepin], the “durchschnittliches Nettogewicht der Kügelchen in mg trocken” value [2, 5] was 20.1 mg, the “durchschnittliches Nettogewicht der Kügelchen in mg feucht” value [2, 5] was 285.2 mg and the “durchschnittliches Nettogewicht der Kügelchen in mg trocken” value [2, 6] was 16.9 mg. The “durchschnittliches Nettogewicht der Kügelchen in mg feucht” value [2, 6] was 234.9 mg, the Hemmung in % ([3]; dose 100 µg/10 µl) was 51% and the Hemmung in % ([3]; dose 500 µg/10 µl) was 75%. The “Gewicht der Ohrstücke in mg” value ([1]; Verbindung E alone, 100 µg/0,1 ml) was 15,9±0,8 mg, the “Gewicht der Ohrstücke in mg” value ([1]; Verbindung E alone, 400 µg/0,1 ml) was 11,8±0,6 mg and the Hemmung in % ([1]; dose 100 µg/25 µl) was 48%. For the same compound, the Hemmung in % ([1]; dose 200 µg/25 µl) was 67%, the Hemmung in % ([1]; dose 500 µg/25 µl) was 91% and the Hemmung in % ([4]; adrenalectomised rats) was 49%. For the same compound, the “Gewicht der Ohrstücke” value ([4]; adrenalectomised rats, vehicle 11.4±0.2, cantharidin alone 25.5±1.0) was 18.6±0.6, the Hemmung in % ([4]; intact rats) was 55% and the “Gewicht der Ohrstücke” value ([4]; intact rats, vehicle 12.0±0.4, cantharidin alone 25.2±1.5) was 18.0±1.1.

Compound CC(=O)Oc1ccccc1C(=O)O [Acetylsalicyl säure] has a Hemmung in % ([1]; dose 1250 µg/25 µl) of 28%, a Hemmung in % ([1]; dose 2500 µg/25 µl) of 36% and a Hemmung in % ([1]; dose 5000 µg/25 µl) of 78%. It also gave a Hemmung in % ([1]; dose 10000 µg/25 µl) of 88%.

In the case of COc1ccc2c(c1)c(CC(=O)O)c(C)n2C(=O)c1ccc(Cl)cc1 [Indomethacin], the Hemmung in % ([3]; dose 500 µg/10 µl) is reported as 32% and the Hemmung in % ([3]; dose 1000 µg/10 µl) is reported as 59%.

Compound Phenylbutazon has a Hemmung in % ([1]; dose 1250 µg/25 µl) of 33% and a Hemmung in % ([1]; dose 2500 µg/25 µl) of 69%.

In the case of CC(C(=O)O)c1cccc(Oc2ccccc2)c1 (stereo not drawn) [Fenoprofen], the Hemmung in % ([1]; dose 1250 µg/25 µl) is reported as 50% and the Hemmung in % ([1]; dose 2500 µg/25 µl) is reported as 71%.

C[C@]12CCC(=O)C=C1CC[C@@H]1[C@@H]2[C@@H](O)C[C@@]2(C)[C@H]1CC[C@]2(O)C(=O)CO [Hydrocortison] was tested, and the “durchschnittliches Nettogewicht der Kügelchen in mg trocken” value [2, 5] was 37.7 mg, the “durchschnittliches Nettogewicht der Kügelchen in mg feucht” value [2, 5] was 406.5 mg and the “durchschnittliches Nettogewicht der Kügelchen in mg trocken” value [2, 6] was 20.3 mg. The “durchschnittliches Nettogewicht der Kügelchen in mg feucht” value [2, 6] was 286.6 mg, the Hemmung in % ([3]; dose 50 µg/10 µl) was 24% and the Hemmung in % ([3]; dose 200 µg/10 µl) was 49%. It also gave a Hemmung in % ([1]; dose 50 µg/25 µl) of 53%, a Hemmung in % ([1]; dose 125 µg/25 µl) of 77% and a Hemmung in % ([1]; dose 250 µg/25 µl) of 98%.

For CCCCOc1cc(CC2CNC(=O)N2)ccc1OC (stereo not drawn) [4-(3-Butoxy-4-methoxybenzyl)-2-imidazolidinon], the “Gewicht der Ohrstücke in mg” value ([1]; 5% imidazolidinone, Verbindung E 0 µg/0,1 ml) was 17,6±1,0 mg, the “entzündungshemmende Wirkung” value ([1]; alone, at concentrations of 5%, test not given) was “nur wenig oder gar keine entzündungshemmende Wirkung” and the “Einfluss auf die entzündungshemmende Wirkung der Verbindung E” value ([1]; imidazolidinone at 5% combined with Verbindung E) was “potenziert”.
